# Laboratory results taken from patent US20240173333A1, “Treating Alagille Syndrome (ALGS)” (priority 2022, published 2024).
# Where “and” joins values, the source holds several entries; their conditions need not be identical. Equal values may be shown once.
# Key:
# [1] = system: patients with Alagille syndrome (ALGS); experiment: ASSERT: global impression of change (CGIC, CaGIC, PGIC) and exit survey; type: in vivo, human; details: week 24
# Protocol: FIG. 27 is a table showing global impressions of change (GIC) over time. GIC items are assessed on a 7-point scale: 1=very much better; 2=much/moderately better; 3=a little better; 4=no change; 5=a little worse; 6=much/moderately worse; 7=very much worse. Changes based on the GIC were analyzed using a proportional odds model with treatment and baseline GIS scores as covariates considering three categories (better, no change, worse). Better includes “very much better,” “much better,” and “a little better,” and worse includes “a little worse,” “much worse,” and “very much worse.” CaGIC=Caregiver Global Impression of Change. CGIC=Clinician Global Impression of Change. PGIC=Patient Global Impression of Change. Global Impression of Change and Global Impression of Symptom Measures. Patients (≥8 years of age), caregivers, and clinicians completed global impression of change (GIC) measures (patient global impression of change (PGIC), caregiver global impression of change (CaGIC), and clinical global impression of change (CGIC)) and the global impression of symptoms (GIS) measures (patient global impression of symptoms (PGIS), caregiver global impression of symptoms (CaGIS), clinical global impression of symptoms (CGIS)) at randomization (Study Day 1; PGIS only), Week 4, 12, and 24/EOT. The GIC items assessed changes in itch (patient version), scratching (caregiver and clinician versions), and sleep (all versions) since starting the study drug. The GIS items assessed itch (patient version), scratching (caregiver and clinician versions), and sleep (all versions) in the past week. Caregivers and clinicians completed the GIC and GIS for all patients; those patients ≥8 years of age completed the patient version.
# patients with ALGS = details: 6 patients with ALGS; 4 weeks; open-label; cited from earlier work
# [2] = system: patients with Alagille syndrome (ALGS); experiment: ASSERT: ObsRO sleep parameters and daytime tiredness; type: in vivo, human
# Description: […] Additional secondary efficacy endpoints were as follows: • Change from baseline in pruritus to Month 6 (Weeks 21 to 24) as measured by the Albireo PRO instrument. • Percentage of patients achieving a clinically meaningful decrease in pruritus (pruritis responders) as measured by the ObsRO/PRO instruments. • Change from baseline through Week 24 in patient reported and observer reported itching and scratching severity scores, respectively, for the morning assessment and for the evening assessment; sleep parameters as measured with the Albireo ObsRO/PRO instruments (e.g., tiredness and number of awakenings); and PedsQL subdomain scores. • Assessment of Global Symptom Relief to from baseline to Weeks 4, 12, and 24 as measured by patient, caregiver, and clinician Global Impression of Symptoms GIS (PGIS, CaGIS, CGIS) items. • Change from baseline to Week 24 in xanthomatosis as assessed by the Clinician Xanthoma Scale; serum bile acid levels; serum ALT concentration; and serum AST concentration; gamma-glutamyl transferase concentration; total bilirubin concentration. • Change from baseline in biochemical markers and measures of bile acid synthesis (autotaxin, p-C4, only in patients >10 kg); and total cholesterol concentration.
# Itching, Scratching, and Sleep Parameters. Itching, observed scratching, and sleep disturbance were recorded twice each day via eDiary. Patients and/or caregivers were instructed to complete the eDiary every day in the morning after the patient woke and in the evening just before the patient went to sleep throughout the study. The eDiary included ObsRO and PRO items. The PRO items assessed severity of itch, aspects of sleep disturbance (morning diary only), and tiredness. The ObsRO items assessed severity of observed scratching, aspects of observed sleep disturbance (morning diary only), and signs of tiredness (evening diary only). The ObsRO and PRO scratching and itch severity items used 0 to 4 response scales.
# [3] = weeks 21-24, caregiver-reported
smiles,measurement,setting,value
"CCCCC1(CCCC)CN(c2ccccc2)c2cc(SC)c(OCC(=O)N[C@@H](C(=O)N[C@@H](CC)C(=O)O)c3ccc(O)cc3)cc2S(=O)(=O)N1 [odevixibat, 1,1-dioxo-3,3-dibutyl-5-phenyl-7-methylthio-8-(N-{(R)-α-[N-((S)-1-carboxypropyl)carbamoyl]-4-hydroxybenzyl}carbamoylmethoxy)-2,3,4,5-tetrahydro-1,2,5-benzothiadiazepine]","CGIC for scratching, percentage of clinician responses (improved)",[1],80%
same,"CGIC for sleep, percentage of clinician responses (improved)",[1],74%
same,"CaGIC for scratching, percentage of caregiver responses (improved pruritus)",[1],87% and 88%
same,"CaGIC for sleep, percentage of caregiver responses (improved sleep)",[1],78%
same,"PGIC for itching, percentage of patient responses (improved)",[1]; patients ≥8 years,80%
same,"PGIC for sleep, percentage of patient responses (improved)",[1]; patients ≥8 years,70%
same,"odds of improvement in sleep, relative to placebo (CaGIC)",[1]; proportional odds model,nine times higher
same,"odds of improvement versus no change or worsening in scratching, relative to placebo (CaGIC)",[1]; proportional odds model,15 times
same,"effect on sBAs, itch, and sleep disturbance",patients with ALGS,"reduced sBAs, itch, and sleep disturbance in a majority of those patients"
same,mean reduction from baseline in daytime tiredness (5-point scale 0-4),"[2]; baseline to weeks 21 to 24, caregiver-rated",−1.1
same,"LS mean change from baseline, percent of days sleeping with caregiver",[2]; [3],−35%
same,"LS mean change from baseline, percent of days with help falling asleep",[2]; [3],−43%
same,"LS mean change from baseline, percent of days with soothing",[2]; [3],−47%
